The test system of one test is Ba/F3^BCR-FMS-11 cells. Briefly: Cell proliferation experiment (Ba/F3^BCR-FMS-11, cckit-8). The class given is cell-based, mouse. As to conditions: Mus musculus, Ba/F3^BCR-FMS-11 cell proliferation. The method in brief: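 Ba/F3 cells stably expressing BCR-FMS, CSF-1R-dependent for growth, seeded at 5000/well in RPMI 1640 with 10% FBS and exposed to 8 compound concentrations for 72 h at 37 °C.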

In test [1] the target is Recombinant human CSF1R kinase (Homo sapiens (Human), UniProt P07333). In kind it is biochemical. As to conditions: Z-LYTE Tyr 1 peptide substrate.
Protocol: Measurement of CSF1R Kinase Activity at Molecular Level
1. Reagents and materials:
• Z-LYTE™ Tyr 1 peptide substrate: Invitrogen, PV3190; • 5× kinase buffer: Invitrogen, PV3189; • 10 mM ATP: Invitrogen, PV3227; • Development reagent B: Invitrogen, PV3295; • Development buffer: Invitrogen, P3127; • Stopping solution: Invitrogen, P3094; • Recombinant human CSF1R kinase: Invitrogen, PR4598A; • 384 well plate, black: Corning, 3575; Envision: Perkin Elmer. 2. Preparation of reaction solutions
1) 1.33× kinase buffer: 5× kinase buffer was diluted to a 1.33× kinase buffer with ddH2O.
2) Dilution of a 4× test compound: The test compound was diluted in gradient to 4-fold the reaction concentration and the concentration of DMSO was kept at 8%. The final concentration of the compound in reaction was: 1, 0.33, 0.11, 0.037, 0.012, 0.004, 0.0014, 0.00046 μM, and the final concentration of DMSO was 2%.
3) A mixture of kinase/peptide substrate: In 1.33× kinase buffer, the kinase and Z-LYTE™ Tyr 1 peptide substrate were diluted to 0.12 μg/mL and 4 μM, respectively, to prepare a mixture of kinase/peptide substrate. The mixture was mixed gently with a pipette.
4) A phosphorylated peptide substrate solution (PP solution): 0.4 μL of Z-LYTE™ Tyr1 phosphorylated peptide substrate was added to 99.6 μL of 1.33× kinase buffer.
5) ATP solution: 10 mM of ATP was diluted to 760 μM with 1.33× kinase buffer to prepare ATP solution.
6) Development solution: Development reagent B was diluted with Development buffer at a ratio of 1:200.
1) Kinase reaction (10 μL system)
2.5 μL of 4× test compound was added to each reaction well of the 384 plate, and the corresponding volume of 8% DMSO was added to the control well. The plate was placed on ice. 5 μL of a mixture of kinase/peptide substrate, 2.5 μL of kinase buffer and ATP solution were successively added to each well. Three control groups were set up: Group C1 contains only kinase buffer, group C2 contains the mixture of kinase/peptide substrate, kinase buffer and ATP, and group C3 contains 5 μL of PP solution. After adding the reaction components, the 384-well plate was sealed and incubated at 25-30° C. for 1 h in dark.
5 μL of Development solution was added to each well, sealed and incubated at 25-30° C. for another 1 h in dark.
3) Reaction stopping and plate reading
5 μL of stopping solution was added to each well. The Coumarin value (excitation at 400 nm, emission at 445 nm) and Fluorescein value (excitation at 400 nm, emission at 520 nm) were measured, respectively.
ER (emission ratio): Coumarin emission read-out (445 nm)/Fluorescein emission read-out (520 nm); • C3 445 nm: 100% phosphorylated Coumarin emission read-out; • C3 520 nm: 100% phosphorylated Fluorescein emission read-out; • C1 445 nm: 0% phosphorylated Coumarin emission read-out; • C1 520 nm: 0% phosphorylated Fluorescein emission read-out. Inhibition rate % (IR)=[1−% phosphorylation ratetest sample/100% phosphorylation ratecontrol]×100%
% phosphorylation ratetest sample: phosphorylation rate of the test compound; • 100% phosphorylation ratecontrol: phosphorylation rate of C3 control group.
5. IC50 values: calculated by using software XL-Fit™ (version 5.3) supplied by ID Business Solutions (Guildford, UK), which is an additional software to Microsoft Excel.
The target of test [2] is CSF1R phosphorylation in THP-1 cells (Homo sapiens (Human), UniProt P07333). Description: Detection of CSF1R phosphorylation activity at cell level (THP-1, M-CSF stimulated, ELISA). The class given is cell-based. As to conditions: p-CSF1R ELISA, compound 60 min, 300 ng/mL M-CSF 1 min. The gist of the method:
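THP-1 cells (5×10^4/well, RPMI 1640, 2% FBS) were pre-treated with compound for 60 min at 37 °C, then stimulated with 300 ng/mL M-CSF for 1 min and lysed. Phospho-CSF1R was read by sandwich ELISA (p-CSF1R capture, anti-phosphotyrosine-HRP detection, OD 450/570 nm). IC50 was fitted with cell-free wells as background.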
In general terms: An ELISA detects its analyte on a solid surface through an enzyme-linked reagent.

SMILES strings stand for the structures.

Sequence of Recombinant human CSF1R kinase (P07333 20-972): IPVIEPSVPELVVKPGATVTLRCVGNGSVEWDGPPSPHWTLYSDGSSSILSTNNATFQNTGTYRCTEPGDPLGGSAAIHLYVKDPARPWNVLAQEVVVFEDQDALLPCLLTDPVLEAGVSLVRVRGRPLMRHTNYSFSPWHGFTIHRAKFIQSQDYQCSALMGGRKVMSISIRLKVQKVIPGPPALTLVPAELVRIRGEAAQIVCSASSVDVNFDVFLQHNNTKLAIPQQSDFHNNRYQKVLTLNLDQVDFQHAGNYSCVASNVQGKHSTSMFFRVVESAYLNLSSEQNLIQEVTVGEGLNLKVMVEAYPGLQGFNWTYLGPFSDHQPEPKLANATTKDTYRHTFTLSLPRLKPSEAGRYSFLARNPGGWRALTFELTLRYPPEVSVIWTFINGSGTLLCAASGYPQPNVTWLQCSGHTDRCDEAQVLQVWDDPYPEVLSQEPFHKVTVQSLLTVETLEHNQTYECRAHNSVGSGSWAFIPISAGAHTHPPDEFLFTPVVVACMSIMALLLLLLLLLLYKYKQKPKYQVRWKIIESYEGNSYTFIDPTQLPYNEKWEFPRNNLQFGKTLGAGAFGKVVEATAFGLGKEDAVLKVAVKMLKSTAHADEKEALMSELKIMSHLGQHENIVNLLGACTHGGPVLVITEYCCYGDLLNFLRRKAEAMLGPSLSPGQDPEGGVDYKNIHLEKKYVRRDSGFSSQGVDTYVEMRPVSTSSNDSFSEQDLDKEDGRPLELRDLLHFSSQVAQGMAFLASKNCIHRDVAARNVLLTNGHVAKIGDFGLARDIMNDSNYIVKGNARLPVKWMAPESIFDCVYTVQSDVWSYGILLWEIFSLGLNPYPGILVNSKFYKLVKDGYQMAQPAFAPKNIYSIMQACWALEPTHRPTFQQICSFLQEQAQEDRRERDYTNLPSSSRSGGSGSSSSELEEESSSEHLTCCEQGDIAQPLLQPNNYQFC
Sequence of CSF1R phosphorylation in THP-1 cells (P07333 20-972): as above

For orientation: IC50 means the concentration that gives 50% inhibition. In the case of `[2H]C([2H])([2H])n1c(C)ncc(C(=O)Nc2ccc(Oc3ccnc(-c4cnn(C)c4)c3)cn2)c1=O` [Compound 128, 2-methyl-1-(methyl-d3)-N-(5-((2-(1-methyl-1H-pyrazol-4-yl)pyridin-4-yl)oxy)pyridin-2-yl)-6-oxo-1,6-dihydropyrimidine-5-carboxamide], the IC50 with Ba/F3^BCR-FMS-11 cells (72 hours) was 2 nM; in test [1] it was 5 nM; in test [2] it was 6 nM.
Taken in the same sequence, the figures for `[2H]C([2H])([2H])n1cc(-c2cc(Oc3ccc(NC(=O)c4cnc(C)n(C)c4=O)nc3)ccn2)cn1` [Compound 129, 1,2-dimethyl-N-(5-((2-(1-(methyl-d3)-1H-pyrazol-4-yl)pyridin-4-yl)oxy)pyridin-2-yl)-6-oxo-1,6-dihydropyrimidine-5-carboxamide] were 2 nM, 4 nM and 7 nM.
`Cc1ncc(C(=O)Nc2ccc(Oc3ccnc(-c4cn[nH]c4)c3)cn2)c(=O)n1C` [Compound 130, N-(5-((2-(1H-pyrazol-4-yl)pyridin-4-yl)oxy)pyridin-2-yl)-1,2-dimethyl-6-oxo-1,6-dihydropyrimidine-5-carboxamide]: the IC50 with Ba/F3^BCR-FMS-11 cells (72 h) is 15 nM; in test [1], 21 nM; in test [2] it was 7 nM.
The matching figures for `Cc1ncc(C(=O)Nc2ccc(Oc3ccnc(-c4cnn(C)c4)c3)cn2)c(=O)[nH]1` [Compound 131, 2-methyl-N-(5-((2-(1-methyl-1H-pyrazol-4-yl)pyridin-4-yl)oxy)pyridin-2-yl)-6-oxo-1,6-dihydropyrimidine-5-carboxamide]: 396 nM, 76 nM and 56 nM.
The matching figures for `Cn1cc(-c2cc(Oc3ccc(NC(=O)c4cnc(CCO)[nH]c4=O)nc3)ccn2)cn1` [Compound 132, 2-(2-hydroxyethyl)-N-(5-((2-(1-methyl-1H-pyrazol-4-yl)pyridin-4-yl)oxy)pyridin-2-yl)-6-oxo-1,6-dihydropyrimidine-5-carboxamide]: 1190 nM, 198 nM and 2110 nM.
In the case of `Cn1cc(-c2cc(Oc3ccc(NC(=O)c4cnc(CO)[nH]c4=O)nc3)ccn2)cn1` [Compound 133, 2-(hydroxymethyl)-N-(5-((2-(1-methyl-1H-pyrazol-4-yl)pyridin-4-yl)oxy)pyridin-2-yl)-6-oxo-1,6-dihydropyrimidine-5-carboxamide], the figures for the IC50 (in the test with Ba/F3^BCR-FMS-11 cells (72 h); in test [1]; in test [2]) were > 3300 nM, 548 nM and > 3000 nM, respectively.
